Source: article PMC5920042, “KH176 Safeguards Mitochondrial Diseased Cells from Redox Stress-Induced Cell Death by Interacting with the Thioredoxin System/Peroxiredoxin Enzyme Machinery” (Scientific Reports, 2018)
pIC50, pKd: −log10 of the molar value.

Legend:
[1] = tested on: primary human skin fibroblasts; assay: Mitochondrial superoxide detection by mitoSOX oxidation; format: cell-based; conditions: 30 min preincubation, no external stimulus; read-out: IC50 mitochondrial superoxide levels (mitoSOX)
Protocol: The cells were seeded at a density of 3 × 10^3 cells/well into 96-wells black plates. After 24 h, the cells were incubated with different amounts of KH176(m) in M199 without phenol red. This medium was used in all subsequent washes and incubations. After 30 min. incubation the cells were washed and subsequently incubated 1 µM mitoSOX (#M36008, ThermoFisher). […] After 10 min incubation the cells were washed twice and incubated for 30 min. to allow the accumulation of oxidized mitoSOX in the mitochondria. […] Wells with cells but without mitoSOX were used for background correction. Experiments were performed at least three times with 3 wells per experiment.

[2] = 28-day repeat oral dose toxicity study, toxicokinetics; format: in vivo, Sprague Dawley rats; conditions: rat
Protocol: (§1) Pharmacokinetics and toxicokinetics measurements were performed by the commercial Contract Research Organizations Sai Life Sciences and WuXi AppTec, respectively, according to their standard protocols and in accordance with relevant guidelines and regulations. C57 BL/6 mice, Sprague Dawley rats, and Beagle dogs were studied.

[3] = Single dose pharmacokinetics and bioavailability study; format: in vivo, male Sprague Dawley rats; conditions: rat, plasma
Protocol: as §1

[4] = 28-day repeat oral dose toxicity study, toxicokinetics; format: in vivo, Beagle dogs; conditions: dog
Protocol: as §1

human Prdx2 = target: T1, human Prdx2 (Homo sapiens, UniProt P32119); assay: Surface Plasmon Resonance binding; conditions: immobilized Prdx2, SPR
T1 construct: purchased Novus Biological NBC1-25855
T1 sequence (P32119 1-198): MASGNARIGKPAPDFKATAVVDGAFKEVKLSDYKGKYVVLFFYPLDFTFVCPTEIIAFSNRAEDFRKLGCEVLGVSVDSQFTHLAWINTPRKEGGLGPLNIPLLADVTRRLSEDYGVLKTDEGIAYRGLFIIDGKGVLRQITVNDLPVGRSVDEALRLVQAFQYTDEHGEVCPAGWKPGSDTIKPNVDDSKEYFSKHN
Protocol: Prior to protein immobilization all proteins were dialyzed against HBS-E (10 mM Hepes, 150 mM NaCl, 3 mM EDTA) buffer that was previously filtered through a 0.45 µM membrane using dialyze slide according to the manufacturer instruction. Human recombinant proteins peroxiredoxin 2 (Novus Biological NBC1-25855) and CCDC101 (Abcam Ab124547) were immobilized on CM5 (carboxymethylated dextran covalently attached to a gold surface) using the amine coupling method according to manufacturer’s recommendation (Biacore, GE Healthcare). Briefly the CM5 surface was activated with the mixture of EDC/NHS. Recombinant proteins at dilution 1 µg/ml in a corresponding buffer i.e. Peroxiredoxin 2 and CCDC101 in sodium acetate buffer 100 mM (pH 4.9). The control channel was activated with EDC/NHS. All channels were thereafter saturated with 0.1 M ethanolamine solution. KH176 andKH176m were solubilized in HBSS at stock solution 1 mM. They were thereafter further diluted in HBSS to final concentrations 0.31e-6M, 0.62e-6M, 1.25e-6M, 2.5e-6M and 5.0e-6M and injected over the flow cells at a flow rate equal to […] for 2 min, followed by a dissociation phase of 4 min. The sensor chip surface was regenerated with 1 mM HCl. The specific binding profiles were obtained after subtracting the response signal from the control empty channel and from blank-buffer injection. The specific binding was calculated using Biaeval 3 software (Biacore, GE Healthcare) with the postulate of 1:1 ligand/analyte interaction. Based on the Chi^2 value in regard to the Rmax (less than 10%) and the difference interval ±2.5 RU theoretic fitting compared to experimental results, best fitting algorithm between Langmuir or drifting base line was applied.

[5] = KH176 25 mg/kg/dose BID oral, F, Day 1
[6] = KH176 25 mg/kg/dose BID oral, F, Day 1, plasma
[7] = KH176 25 mg/kg/dose BID oral, F, Day 28
[8] = KH176 25 mg/kg/dose BID oral, F, Day 28, plasma
[9] = KH176 25 mg/kg/dose BID oral, M, Day 1
[10] = KH176 25 mg/kg/dose BID oral, M, Day 1, plasma
[11] = KH176 25 mg/kg/dose BID oral, M, Day 28
[12] = KH176 25 mg/kg/dose BID oral, M, Day 28, plasma
[13] = KH176 75 mg/kg/dose BID oral, F, Day 1, plasma
[14] = KH176 75 mg/kg/dose BID oral, F, Day 28, plasma
[15] = KH176 75 mg/kg/dose BID oral, M, Day 1, plasma
[16] = KH176 75 mg/kg/dose BID oral, M, Day 28, plasma
[17] = KH176 250 mg/kg/dose BID oral, F, Day 1, plasma
[18] = KH176 250 mg/kg/dose BID oral, F, Day 28, plasma
[19] = KH176 250 mg/kg/dose BID oral, M, Day 1, plasma
[20] = KH176 250 mg/kg/dose BID oral, M, Day 28, plasma
[21] = KH176 10 mg/kg/dose BID oral, F, Day 1, plasma
[22] = KH176 10 mg/kg/dose BID oral, F, Day 28, plasma
[23] = KH176 10 mg/kg/dose BID oral, M, Day 1, plasma
[24] = KH176 10 mg/kg/dose BID oral, M, Day 28, plasma
[25] = KH176 62.5 mg/kg/dose BID oral, F, Day 1, plasma
[26] = KH176 62.5 mg/kg/dose BID oral, F, Day 28, plasma
[27] = KH176 62.5 mg/kg/dose BID oral, M, Day 1, plasma
[28] = KH176 62.5 mg/kg/dose BID oral, M, Day 28, plasma

In the case of `CC1=C(C)C(=O)C(CC[C@](C)(O)C(=O)N[C@@H]2CCCNC2)=C(C)C1=O` [KH176m], the pIC50 [1] was 5.85, the “AUC0–24 h Ratio KH176m/KH176” value [2, 5] was 0.091 and the “AUC0–24 h” value [2, 6] was 1140 ng·h/mL. The Cmax [2, 6] was 85.9 ng/mL, the T1/2 [2, 6] was 4.5 h and the “AUC0–24 h Ratio KH176m/KH176” value [2, 7] was 0.074. For the same compound, the “AUC0–24 h” value [2, 8] was 1410 ng·h/mL, the Cmax [2, 8] was 123 ng/mL and the T1/2 [2, 8] was 6.2 h. For the same compound, the “AUC0–24 h Ratio KH176m/KH176” value [2, 9] was 0.075, the “AUC0–24 h” value [2, 10] was 792 ng·h/mL and the Cmax [2, 10] was 92.7 ng/mL. For the same compound, the T1/2 [2, 10] was 2.3 h, the “AUC0–24 h Ratio KH176m/KH176” value [2, 11] was 0.064 and the “AUC0–24 h” value [2, 12] was 993 ng·h/mL. The Cmax [2, 12] was 126 ng/mL, the T1/2 [2, 12] was 13.3 h and the “AUC0–24 h Ratio KH176m/KH176” value ([2]; KH176 75 mg/kg/dose BID oral, F, Day 1) was 0.073. For the same compound, the “AUC0–24 h” value [2, 13] was 3090 ng·h/mL, the Cmax [2, 13] was 203 ng/mL and the T1/2 [2, 13] was 30.9 h. The “AUC0–24 h Ratio KH176m/KH176” value ([2]; KH176 75 mg/kg/dose BID oral, F, Day 28) was 0.067, the “AUC0–24 h” value [2, 14] was 5120 ng·h/mL and the Cmax [2, 14] was 305 ng/mL. For the same compound, the T1/2 [2, 14] was 12.9 h, the “AUC0–24 h Ratio KH176m/KH176” value ([2]; KH176 75 mg/kg/dose BID oral, M, Day 1) was 0.080 and the “AUC0–24 h” value [2, 15] was 2640 ng·h/mL. For the same compound, the Cmax [2, 15] was 187 ng/mL, the T1/2 [2, 15] was 3.5 h and the “AUC0–24 h Ratio KH176m/KH176” value ([2]; KH176 75 mg/kg/dose BID oral, M, Day 28) was 0.067. For the same compound, the “AUC0–24 h” value [2, 16] was 3100 ng·h/mL, the Cmax [2, 16] was 265 ng/mL and the “AUC0–24 h Ratio KH176m/KH176” value ([2]; KH176 250 mg/kg/dose BID oral, F, Day 1) was 0.073. The “AUC0–24 h” value [2, 17] was 7630 ng·h/mL, the Cmax [2, 17] was 415 ng/mL and the “AUC0–24 h Ratio KH176m/KH176” value ([2]; KH176 250 mg/kg/dose BID oral, F, Day 28) was 0.071. For the same compound, the “AUC0–24 h” value [2, 18] was 17300 ng·h/mL, the Cmax [2, 18] was 913 ng/mL and the “AUC0–24 h Ratio KH176m/KH176” value ([2]; KH176 250 mg/kg/dose BID oral, M, Day 1) was 0.055. For the same compound, the “AUC0–24 h” value [2, 19] was 5170 ng·h/mL, the Cmax [2, 19] was 312 ng/mL and the T1/2 [2, 19] was 104.4 h. For the same compound, the “AUC0–24 h Ratio KH176m/KH176” value ([2]; KH176 250 mg/kg/dose BID oral, M, Day 28) was 0.066, the “AUC0–24 h” value [2, 20] was 10400 ng·h/mL and the Cmax [2, 20] was 777 ng/mL. For the same compound, the T1/2 [2, 20] was 6.5 h, the AUCINF ([3]; KH176 2 mg/kg i.v.) was 206.1 ng·h/mL and the AUClast ([3]; KH176 2 mg/kg i.v.) was 150.2 ng·h/mL. For the same compound, the T1/2 ([3]; KH176 2 mg/kg i.v.) was 2.3 h, the “C0 (i.v.)” value ([3]; KH176 2 mg/kg i.v., back extrapolated) was 59.7 ng/mL and the AUCINF ([3]; KH176 10 mg/kg p.o.) was 1503.2 ng·h/mL. For the same compound, the AUClast ([3]; KH176 10 mg/kg p.o.) was 1441.1 ng·h/mL, the “Cmax (p.o.)” value ([3]; KH176 10 mg/kg p.o.) was 396.4 ng/mL and the Tmax ([3]; KH176 10 mg/kg p.o.) was 0.5 h. For the same compound, the “AUC0–24 h Ratio KH176m/KH176” value ([4]; KH176 10 mg/kg/dose BID oral, F, Day 1) was 0.864, the “AUC0–24 h” value [4, 21] was 7640 ng·h/mL and the Cmax [4, 21] was 539 ng/mL. The T1/2 [4, 21] was 5.4 h, the “AUC0–24 h Ratio KH176m/KH176” value ([4]; KH176 10 mg/kg/dose BID oral, F, Day 28) was 0.719 and the “AUC0–24 h” value [4, 22] was 10500 ng·h/mL. The Cmax [4, 22] was 786 ng/mL, the T1/2 [4, 22] was 4.7 h and the “AUC0–24 h Ratio KH176m/KH176” value ([4]; KH176 10 mg/kg/dose BID oral, M, Day 1) was 0.848. For the same compound, the “AUC0–24 h” value [4, 23] was 13900 ng·h/mL, the Cmax [4, 23] was 946 ng/mL and the T1/2 [4, 23] was 4.7 h. For the same compound, the “AUC0–24 h Ratio KH176m/KH176” value ([4]; KH176 10 mg/kg/dose BID oral, M, Day 28) was 0.668, the “AUC0–24 h” value [4, 24] was 12700 ng·h/mL and the Cmax [4, 24] was 916 ng/mL. For the same compound, the T1/2 [4, 24] was 7.7 h, the “AUC0–24 h Ratio KH176m/KH176” value [4, 5] was 0.845 and the “AUC0–24 h” value [4, 6] was 35400 ng·h/mL. For the same compound, the Cmax [4, 6] was 2200 ng/mL, the “AUC0–24 h Ratio KH176m/KH176” value [4, 7] was 0.823 and the “AUC0–24 h” value [4, 8] was 32900 ng·h/mL. For the same compound, the Cmax [4, 8] was 2170 ng/mL, the “AUC0–24 h Ratio KH176m/KH176” value [4, 9] was 0.967 and the “AUC0–24 h” value [4, 10] was 41200 ng·h/mL. The Cmax [4, 10] was 2610 ng/mL, the T1/2 [4, 10] was 11.1 h and the “AUC0–24 h Ratio KH176m/KH176” value [4, 11] was 0.970. The “AUC0–24 h” value [4, 12] was 38700 ng·h/mL, the Cmax [4, 12] was 2270 ng/mL and the T1/2 [4, 12] was 14.3 h. For the same compound, the “AUC0–24 h Ratio KH176m/KH176” value ([4]; KH176 62.5 mg/kg/dose BID oral, F, Day 1) was 0.908, the “AUC0–24 h” value [4, 25] was 57300 ng·h/mL and the Cmax [4, 25] was 3550 ng/mL. The T1/2 [4, 25] was 5.3 h, the “AUC0–24 h Ratio KH176m/KH176” value ([4]; KH176 62.5 mg/kg/dose BID oral, F, Day 28) was 0.938 and the “AUC0–24 h” value [4, 26] was 80200 ng·h/mL. The Cmax [4, 26] was 4990 ng/mL, the T1/2 [4, 26] was 12.2 h and the “AUC0–24 h Ratio KH176m/KH176” value ([4]; KH176 62.5 mg/kg/dose BID oral, M, Day 1) was 0.743. For the same compound, the “AUC0–24 h” value [4, 27] was 68000 ng·h/mL, the Cmax [4, 27] was 4020 ng/mL and the T1/2 [4, 27] was 12.9 h. The “AUC0–24 h Ratio KH176m/KH176” value ([4]; KH176 62.5 mg/kg/dose BID oral, M, Day 28) was 0.835, the “AUC0–24 h” value [4, 28] was 85200 ng·h/mL and the Cmax [4, 28] was 5250 ng/mL. The “Binding to Prdx2” value (human Prdx2; 0.31-5.0 µM) was “dose-dependent binding” and the pKd (human Prdx2; read-out: Affinity (Kd), Langmuir one site model) was 6.52.
